# Measured values: patent publication US8530489B2 (Vertex Pharmaceuticals Incorporated, priority 2006, dated 2013)
# Target: PLK1 (Homo sapiens, UniProt P53350)
# Experiment: PLK1 Inhibition Assay I (radioactive-phosphate incorporation)
# Type: biochemical
# Conditions: Ki(app); PLK1 Inhibition Assay I or II (table does not say which)
# Summary of the method: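 Ki(app) values came from non-linear regression of initial rates after background subtraction, with phosphopeptide measured by phosphocellulose filter binding and scintillation counting. PLK1 at 2 nM was preincubated with compound (typically from 10 μM, 2-fold dilutions) for 10 min, then run 240 min at 25° C with 350 μM [γ-33P]ATP and 450 μM peptide substrate in HEPES pH 7.5 buffer.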
# PLK1, sequence (P53350 whole entry): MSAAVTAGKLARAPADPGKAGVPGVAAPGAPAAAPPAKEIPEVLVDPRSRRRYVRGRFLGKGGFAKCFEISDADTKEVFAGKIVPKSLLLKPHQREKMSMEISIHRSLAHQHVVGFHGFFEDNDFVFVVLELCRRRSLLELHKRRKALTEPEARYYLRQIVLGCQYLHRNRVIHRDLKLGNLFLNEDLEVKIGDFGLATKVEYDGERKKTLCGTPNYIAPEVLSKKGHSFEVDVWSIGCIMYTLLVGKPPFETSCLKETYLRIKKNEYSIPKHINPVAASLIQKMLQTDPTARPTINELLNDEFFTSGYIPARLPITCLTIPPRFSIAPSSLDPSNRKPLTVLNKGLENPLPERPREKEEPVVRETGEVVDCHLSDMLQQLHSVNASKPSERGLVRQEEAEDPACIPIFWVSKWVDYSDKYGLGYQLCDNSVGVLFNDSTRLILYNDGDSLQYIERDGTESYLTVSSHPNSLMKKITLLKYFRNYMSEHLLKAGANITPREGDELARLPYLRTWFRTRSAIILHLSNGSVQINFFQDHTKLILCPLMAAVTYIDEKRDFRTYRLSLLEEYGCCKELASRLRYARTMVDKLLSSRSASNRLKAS
row,Structure (SMILES),Ki
1,"COCC(Nc1ncc(C#N)c(-c2c[nH]c3ncc(C(F)(F)F)cc23)n1)C(C)C (centres unmarked) [Compound I-110, 2-(1-methoxy-3-methylbutan-2-ylamino)-4-(5-(trifluoromethyl)-1H-pyrrolo[2,3-b]pyridin-3-yl)pyrimidine-5-carbonitrile]",3 to 40 nM
2,"CN1CCC(CNc2ncc(C#N)c(-c3c[nH]c4ncc(C(F)(F)F)cc34)n2)CC1 [Compound I-117, 2-((1-methylpiperidin-4-yl)methylamino)-4-(5-(trifluoromethyl)-1H-pyrrolo[2,3-b]pyridin-3-yl)pyrimidine-5-carbonitrile]",> 40 nM
3,"CCN(CC)CCN(C)c1ccc([C@@H](C)Nc2ncc(C#N)c(-c3c[nH]c4ncc(C(F)(F)F)cc34)n2)cn1 [Compound I-287, 2-((R)-1-(6-((2-(diethylamino)ethyl)(methyl)amino)pyridin-3-yl)ethylamino)-4-(5-(trifluoromethyl)-1H-pyrrolo[2,3-b]pyridin-3-yl)pyrimidine-5-carbonitrile]",3 to 40 nM
4,"CC(C)(Nc1ncc(C#N)c(-c2c[nH]c3ncc(Cl)cc23)n1)C(=O)NC1CCCCC1 [IA-5, 2-(4-(5-chloro-1H-pyrrolo[2,3-b]pyridin-3-yl)-5-cyanopyrimidin-2-ylamino)-N-cyclohexyl-2-methylpropanamide]",3 to 40 nM
5,"N#Cc1cnc(N[C@@H]2CC3CC[C@@H]2C3)nc1-c1c[nH]c2ncc(C(F)(F)F)cc12 [Compound I-65, 2-((1R,2R)-bicyclo[2.2.1]heptan-2-ylamino)-4-(5-(trifluoromethyl)-1H-pyrrolo[2,3-b]pyridin-3-yl)pyrimidine-5-carbonitrile]",3 to 40 nM
6,"CC(C)C[C@H](CO)Nc1ncc(C#N)c(-c2c[nH]c3ncc(C(F)(F)F)cc23)n1 [Compound I-44, 2-((R)-1-hydroxy-4-methylpentan-2-ylamino)-4-(5-(trifluoromethyl)-1H-pyrrolo[2,3-b]pyridin-3-yl)pyrimidine-5-carbonitrile]",> 40 nM
7,"N#Cc1cnc(NCc2cccc(Cl)c2)nc1-c1c[nH]c2ncc(C(F)(F)F)cc12 [Compound I-13, 2-(3-chlorobenzylamino)-4-(5-(trifluoromethyl)-1H-pyrrolo[2,3-b]pyridin-3-yl)pyrimidine-5-carbonitrile]",> 40 nM
8,"C[C@@H](Nc1ncc(C#N)c(-c2c[nH]c3ncc(C(F)(F)F)cc23)n1)[C@H]1CC[C@@H](N2CCN(C)CC2)CC1 [Compound I-245, 2-((R)-1-((1s,4S)-4-(4-methylpiperazin-1-yl)cyclohexyl)ethylamino)-4-(5-(trifluoromethyl)-1H-pyrrolo[2,3-b]pyridin-3-yl)pyrimidine-5-carbonitrile]",> 40 nM
9,"CC(Nc1ncc(C#N)c(-c2c[nH]c3ncc(C(F)(F)F)cc23)n1)c1ccc(N2CCC(F)CC2)nc1 (centres unmarked) [Compound I-199, 2-(1-(6-(4-fluoropiperidin-1-yl)pyridin-3-yl)ethylamino)-4-(5-(trifluoromethyl)-1H-pyrrolo[2,3-b]pyridin-3-yl)pyrimidine-5-carbonitrile]",3 to 40 nM
10,"N#Cc1cnc(NCc2cccc(F)c2)nc1-c1c[nH]c2ncc(C(F)(F)F)cc12 [Compound I-18, 2-(3-fluorobenzylamino)-4-(5-(trifluoromethyl)-1H-pyrrolo[2,3-b]pyridin-3-yl)pyrimidine-5-carbonitrile]",3 to 40 nM
11,"C[C@@H](Nc1ncc(C#N)c(-c2c[nH]c3ncc(C(F)(F)F)cc23)n1)C1CCN(C(=O)[C@H](N)CCCN)CC1 [Compound I-252, 2-((R)-1-(1-((R)-2,5-diaminopentanoyl)piperidin-4-yl)ethylamino)-4-(5-(trifluoromethyl)-1H-pyrrolo[2,3-b]pyridin-3-yl)pyrimidine-5-carbonitrile]",3 to 40 nM
12,"C[C@@H](Nc1ncc(C#N)c(-c2c[nH]c3ncc(C(F)(F)F)cc23)n1)C1CCN(C(=O)C(O)CN)CC1 (stereo partly drawn) [Compound I-260, 2-((1R)-1-(1-(3-amino-2-hydroxypropanoyl)piperidin-4-yl)ethylamino)-4-(5-(trifluoromethyl)-1H-pyrrolo[2,3-b]pyridin-3-yl)pyrimidine-5-carbonitrile]",< 3 nM
13,"C#CCN1CCC(C(C)Nc2ncc(C#N)c(-c3c[nH]c4ncc(C(F)(F)F)cc34)n2)CC1 (centres unmarked) [Compound I-178, 2-(1-(1-(prop-2-ynyl)piperidin-4-yl)ethylamino)-4-(5-(trifluoromethyl)-1H-pyrrolo[2,3-b]pyridin-3-yl)pyrimidine-5-carbonitrile]",3 to 40 nM
14,"CC[C@H](C)Nc1ncc(C#N)c(-c2c[nH]c3ncc(C(F)(F)F)cc23)n1 [Compound I-77, 2-(sec-butylamino)-4-(5-(trifluoromethyl)-1H-pyrrolo[2,3-b]pyridin-3-yl)pyrimidine-5-carbonitrile]",3 to 40 nM
15,"CCCNc1ncc(C#N)c(-c2c[nH]c3ncc(C(F)(F)F)cc23)n1 [Compound I-93, 2-(propylamino)-4-(5-(trifluoromethyl)-1H-pyrrolo[2,3-b]pyridin-3-yl)pyrimidine-5-carbonitrile]",3 to 40 nM

# The remaining lines, values ahead:
row,Ki,Structure (SMILES)
1,< 3 nM,"CC[C@@H](N)C(=O)N1CCC([C@@H](C)Nc2ncc(C#N)c(-c3c[nH]c4ncc(C(F)(F)F)cc34)n2)CC1 [Compound I-226, 2-((R)-1-(1-((R)-2-aminobutanoyl)piperidin-4-yl)ethylamino)-4-(5-(trifluoromethyl)-1H-pyrrolo[2,3-b]pyridin-3-yl)pyrimidine-5-carbonitrile]"
2,< 3 nM,"CCC(Nc1ncc(C#N)c(-c2c[nH]c3ncc(C(F)(F)F)cc23)n1)C1CCN(C(C)=O)CC1 (centres unmarked) [Compound I-174, 2-(1-(1-acetylpiperidin-4-yl)propylamino)-4-(5-(trifluoromethyl)-1H-pyrrolo[2,3-b]pyridin-3-yl)pyrimidine-5-carbonitrile]"
3,< 3 nM,"C[C@@H](Nc1ncc(C#N)c(-c2c[nH]c3ncc(C(F)(F)F)cc23)n1)c1ccc(N2CCCN(C)CC2)nc1 [Compound I-292, 2-((R)-1-(6-(4-methyl-1,4-diazepan-1-yl)pyridin-3-yl)ethylamino)-4-(5-(trifluoromethyl)-1H-pyrrolo[2,3-b]pyridin-3-yl)pyrimidine-5-carbonitrile]"
4,< 3 nM,"COC(=O)Nc1ccc([C@@H](C)Nc2ncc(C#N)c(-c3c[nH]c4ncc(C(F)(F)F)cc34)n2)cc1 [Compound I-141, methyl 4-((1R)-1-(5-cyano-4-(5-(trifluoromethyl)-1H-pyrrolo[2,3-b]pyridin-3-yl)pyrimidin-2-ylamino)ethyl)phenylcarbamate]"
5,< 3 nM,"CCN(CCN(C)C)c1ccc([C@@H](C)Nc2ncc(C#N)c(-c3c[nH]c4ncc(C(F)(F)F)cc34)n2)cn1 [Compound I-296, 2-((R)-1-(6-((2-(dimethylamino)ethyl)(ethyl)amino)pyridin-3-yl)ethylamino)-4-(5-(trifluoromethyl)-1H-pyrrolo[2,3-b]pyridin-3-yl)pyrimidine-5-carbonitrile]"
6,< 3 nM,"CCC(=O)Nc1ccc([C@@H](C)Nc2ncc(C#N)c(-c3c[nH]c4ncc(C(F)(F)F)cc34)n2)cc1 [Compound I-144, N-(4-((1R)-1-(5-cyano-4-(5-(trifluoromethyl)-1H-pyrrolo[2,3-b]pyridin-3-yl)pyrimidin-2-ylamino)ethyl)phenyl)propionamide]"
7,< 3 nM,"C[C@@H](Nc1ncc(C#N)c(-c2c[nH]c3ncc(C(F)(F)F)cc23)n1)c1ccc(NS(=O)(=O)C2CC2)cc1 [Compound I-168, N-(4-((1R)-1-(5-cyano-4-(5-(trifluoromethyl)-1H-pyrrolo[2,3-b]pyridin-3-yl)pyrimidin-2-ylamino)ethyl)phenyl)cyclopropanesulfonamide]"
8,< 3 nM,"CC(Nc1ncc(C#N)c(-c2c[nH]c3ncc(C(F)(F)F)cc23)n1)C1CCN(S(C)(=O)=O)CC1 (centres unmarked) [Compound I-150, 2-(1-(1-(methylsulfonyl)piperidin-4-yl)ethylamino)-4-(5-(trifluoromethyl)-1H-pyrrolo[2,3-b]pyridin-3-yl)pyrimidine-5-carbonitrile]"
9,< 3 nM,"CNC(=O)c1ccc([C@@H](C)Nc2ncc(C#N)c(-c3c[nH]c4ncc(C(F)(F)F)cc34)n2)cc1 [Compound I-163, 4-((1R)-1-(5-cyano-4-(5-(trifluoromethyl)-1H-pyrrolo[2,3-b]pyridin-3-yl)pyrimidin-2-ylamino)ethyl)-N-methylbenzamide]"
10,< 3 nM,"CC(C)[C@@H](O)C(=O)N1CCC([C@@H](C)Nc2ncc(C#N)c(-c3c[nH]c4ncc(C(F)(F)F)cc34)n2)CC1 [Compound I-256, 2-((R)-1-(1-((R)-2-hydroxy-3-methylbutanoyl)piperidin-4-yl)ethylamino)-4-(5-(trifluoromethyl)-1H-pyrrolo[2,3-b]pyridin-3-yl)pyrimidine-5-carbonitrile]"
11,< 3 nM,"C[C@@H](Nc1ncc(C#N)c(-c2c[nH]c3ncc(C(F)(F)F)cc23)n1)C1CCN(C(=O)[C@@H](N)CCCN)CC1 [Compound I-254, 2-((R)-1-(1-((S)-2,5-diaminopentanoyl)piperidin-4-yl)ethylamino)-4-(5-(trifluoromethyl)-1H-pyrrolo[2,3-b]pyridin-3-yl)pyrimidine-5-carbonitrile]"
12,< 3 nM,"C[C@@H](Nc1ncc(C#N)c(-c2c[nH]c3ncc(C(F)(F)F)cc23)n1)C1CCN(C(=O)[C@@H](N)[C@@H](C)O)CC1 [Compound I-242, 2-((R)-1-(1-((2S,3R)-2-amino-3-hydroxybutanoyl)piperidin-4-yl)ethylamino)-4-(5-(trifluoromethyl)-1H-pyrrolo[2,3-b]pyridin-3-yl)pyrimidine-5-carbonitrile]"
13,< 3 nM,"C[C@@H](Nc1ncc(C#N)c(-c2c[nH]c3ncc(C(F)(F)F)cc23)n1)[C@H]1CC[C@H](NC(=O)CO)CC1 [Compound I-211, N-((1R,4r)-4-((1R)-1-(5-cyano-4-(5-(trifluoromethyl)-1H-pyrrolo[2,3-b]pyridin-3-yl)pyrimidin-2-ylamino)ethyl)cyclohexyl)-2-hydroxyacetamide]"
14,< 3 nM,"CC(Nc1ncc(C#N)c(-c2c[nH]c3ncc(C(F)(F)F)cc23)n1)c1ccc(O)c(Cl)c1 (centres unmarked) [Compound I-122, 2-(1-(3-chloro-4-hydroxyphenyl)ethylamino)-4-(5-(trifluoromethyl)-1H-pyrrolo[2,3-b]pyridin-3-yl)pyrimidine-5-carbonitrile]"
